{
  "source": "patent US20220193016A1",
  "about": "“COMPOSITIONS, METHODS AND USES FOR TARGETING C-TERMINAL BINDING PROTEIN (CtBP) IN [sequence] BRAIN INJURY” (THE REGENTS OF THE UNIVERSITY OF COLORADO, A BODY CORPORATE, priority 2019, published 2022)",
  "key": {"[1]": {"tested_on": "DNFB-induced contact hypersensitivity (CHS)", "test": "DNFB mouse model of contact hypersensitivity", "format": "in vivo", "conditions": "peptides topically on the ear day 6 through day 9", "text": "In another exemplary method, FIG. 14A-14B illustrate the effectiveness of additional CtBP inhibiting peptides in reducing skin inflammation caused by sensitization and elicitation with the hapten 2,4-dinitrofluorobenzene (DNFB). Peptides MH-3, MH-4, MH-6 and MH-7 were derived from MH-2, all containing a polyarginine sequence to promote membrane transduction, with variations at the linker or flanking sequence of the PIDLS motif. […] The thickness of the epidermis of the ear is indicated by the red square bracket. It is noted that the DNFB-induced CHS in mice is an established model for human allergic contact dermatitis, both of which are T cell-mediated delayed hypersensitivity responses. Mice (n=3) were sensitized on day 1 with […] of 0.5% DNFB on the abdomen surface and challenged on day 6 with […] of 0.5% DNFB on both sides of the ears to trigger T memory cell-mediated hypersensitivity reaction. Peptides ([…]) were topically administered on both sides of the ear 1 h after the DNFB application on day 6 through day 9. Ear swelling and reddening were examined daily till the end point (day 9)."}, "[2]": {"tested_on": "imiquimod-induced psoriasis-like skin inflammation", "test": "Imiquimod animal model of psoriasis-like skin inflammation", "format": "in vivo, mice", "conditions": "peptides topically daily from day 3 of imiquimod course; day 7"}, "[3]": {"tested_on": "repetitive mild TBI (two 0.5 J impacts 24 h apart)", "test": "Repetitive mild TBI in mice (NSS, brain mRNA)", "format": "in vivo, mouse", "procedure": "In another exemplary experiment, mice (n=4 per group) were subjected to a single mild TBI of 0.5 J dose at 0 h (sTBI) or two doses of 0.5 J mild TBI (rTBI) that were 24 h apart, at 0 h and 24 h. Animals with rTBI were separated into three. groups untreated, intraperitoneally injected with MTOB (860 mg/kg) or NSC95397 (1.5 mg/kg) at 1 h and 18 h. Animals were tested right before the two MTOB injection (0 h and 18 h) and then daily for neurobehavioral preformance. At the end point (72 h), the brain and circulating leukocytes were collected for molecular and immunostaining analyses.\nFIGS. 9A-9D. Administration of MTOB and NSC95397 after a single mild TBI effectively subdues neuroinflammation and improves neurological outcome elicited by a second mild TBI. Mice (n=4 per group) were subjected to a single mild TBI of 0.5 J dose at 0 h (sTBI) or two doses of 0.5 J mild TBI, 24 h apart, at 0 h and 24 h (rTBI). The three rTBI groups were either untreated, treated with MTOB (860 mg/kg) or NSC95397 (1.5 mg/kg) at […] and 18 h. (9A) Neurobehavioral severity scale (NSS) analysis was performed at the indicated time points after the first TBI; the scores were shown as mean+SD. (9B) Bar graphs represent mean±SD of fold changes in mRNA levels in the brain. (9A) Experimental timeline. Mice received a single head impact of 0.5 J energy (1×TBI), or two 0.5 J impacts (2×TBI) spaced 24 h apart. […]"}, "RAW264.7 cells": {"tested_on": "RAW264.7 cells", "test": "Expression of CtBP target genes in LPS-activated RAW264.7 macrophage cell line (RT-qPCR)", "format": "cell-based, mouse", "conditions": "siRNA 24 h, then LPS 200 ng/ml 6 h", "procedure": "(§1) Murine RAW264.7 (A) and BV2 (B) cells were transfected with siRNAs specific for CtBP1 and CtBP2 or scrambled control siRNAs for a period of 24 h, followed by LPS stimulation (200 ng/ml) for 6 h. Total RNA was extracted and analyzed by the RT-qPCR. Relative mRNA expression was normalized to that of ACTB and depicted as fold changes vs. scrambled siRNA transfected and non-stimulated control (Untreated). Data are presented as mean±SD. n=3; **p<0.01, ***p<0.001. FIG. 2C illustrates LPS-induced binding of CtBP1, CtBP2 and p300 to the IL1β, IL6, TNFα and S100A8 gene promoters. Chromatin fractions from control and LPS-treated BV2 cells were precipitated with antibodies specific to CtBP1, CtBP2 and p300. Bars represent fold changes of relative ChIP signals normalized to the respective controls.\n(§2) In this exemplary study, cells were pretreated with 0.5 or 2.5 mM MTOB for 2 h or 18 h, then with 100 ng/mL LPS for an additional 2 h before being harvested for analysis, using RT-qPCR. Bar graphs represent mean±SD of fold changes in mRNA levels. […]\nIn another exemplary method as illustrated in FIG. 11 relative CtBP1, CtBP2, IL6, S100A8, NRLP3, E-cadherin and Bax mRNA levels in RAW264.7 macrophages stimulated with 100 ng/ml of LPS for 6 h before post-treatment with MTOB for 2 h and at dosages of 0.5 mM and 2.5 mM MTOB sodium salt were analyzed. […]"}, "BV2 cells": {"tested_on": "BV2 cells", "test": "Expression of CtBP target genes in LPS-activated BV2 microglia cell line (RT-qPCR)", "format": "cell-based, mouse", "conditions": "siRNA 24 h, then LPS 200 ng/ml 6 h", "procedure": "In one exemplary method, BV2 cells were treated with CtBP-specific siRNAs 24 hours prior to a 6-hour treatment with LPS. In this example, siCtBP1 (SEQ. NO.1) and siCtBP2 (SEQ. NO.2) were used. Relative mean mRNA levels (±SD) were determined by RT-qPCR, performed in triplicate and in two independent experiments.\nas §1, §2"}, "[4]": {"tested_on": "LPS-activated primary astrocytes", "test": "LPS-induced expression of CtBP target genes in primary astrocytes (mRNA)", "format": "cell-based", "conditions": "primary astrocytes from neonatal mouse brain, data not shown"}, "[5]": {"tested_on": "isolated mouse hippocampus", "test": "LPS-induced expression of CtBP target genes in isolated mouse hippocampus", "conditions": "20 mM Pep1-E1As 2 h, then 200 ng/mL LPS 2 h; mRNA, FIG. 6C", "procedure": "In another exemplary method, a CtBP inhibitor was analyzed for effects on CtBP target gene expression using methods disclosed herein. […] FIG. 6A represents primary microglia that were incubated with 20 μM Pep1-E1As for 2 hours followed by 2 hours of treatment with 200 ng/mL LPS. Bar graphs represent mean±SD of fold changes in mRNA levels. […] FIG. 6C represents isolated mouse hippocampus that were incubated with […] Pep1-E1As for 2 hours followed by 2 hours treatment with 200 ng/mL LPS. Bar graphs represent mean±SD of fold changes in mRNA levels."}, "[6]": {"tested_on": "LPS-activated primary microglia", "test": "LPS-induced expression of CtBP target genes in primary microglia (mRNA)", "format": "cell-based, mouse", "conditions": "for LPS-induced expression of the CtBP-controlled inflammatory genes: primary microglia from neonatal mouse brain, 20 μM peptide 2 h, then 200 ng/mL LPS 2 h, mRNA"}},
  "data": [
    {"molecule": "MH-2: SEQ ID NO. 19 RRRRRRRRGGPIDLSKKA (18 aa) (Synthetic Sequence - MH-2)", "values": [
      {"measurement": "epidermal hyperproliferation of the ear", "setting": "[1]", "value": "reducing epidermal hyperproliferation and immunocyte infiltration"},
      {"measurement": "immunocyte infiltration (CD45 immunohistochemistry)", "setting": "[1]", "value": "reducing epidermal hyperproliferation and immunocyte infiltration"},
      {"measurement": "imiquimod-induced epidermal proliferation (H&E, epidermis thickness)", "setting": "[2]", "value": "as effective in reducing imiquimod-induced epidermal proliferation as the prototype Pep1-E1A"}
    ]},
    {"molecule": "O=C1C(SCCO)=C(SCCO)C(=O)c2ccccc21", "note": "[NSC95397, 2,3-Bis[(2-hydroxyethyl)thio]-1,4-naphthoquinone]", "values": [
      {"measurement": "inflammatory gene induction (brain mRNA) after repetitive mild TBI", "setting": "[3]; i.p. MTOB 860 mg/kg or NSC95397 1.5 mg/kg at 1 h and 18 h, 72 h after first injury", "value": "significantly reduced"},
      {"measurement": "neurobehavioral defects (NSS) after repetitive mild TBI", "setting": "[3]; i.p. MTOB 860 mg/kg or NSC95397 1.5 mg/kg at 1 h and 18 h after first injury", "value": "significantly reduced"}
    ]},
    {"molecule": "siRNAs specific for CtBP1 and CtBP2: simultaneous use of mouse siCtBP1 (SEQ. NO.1) and siCtBP2 (SEQ. NO.2) (chain 1 UCUUCCACAGUGUGACUGCGUUAUUUU; chain 2 GCCUUUGGAUUCAGCGUCAUAUUU; listed as RNA, chemistry not given here)", "values": [
      {"measurement": "mRNA expression of proinflammatory genes after knockdown", "setting": "RAW264.7 cells", "value": "suppresses mRNA expression of proinflammatory genes"},
      {"measurement": "mRNA expression of proinflammatory genes after knockdown", "setting": "BV2 cells", "value": "suppresses mRNA expression of proinflammatory genes"}
    ]},
    {"molecule": "Pep1-E1AWT: SEQ ID NO. 5 GSHMKETWWETWWTEWSQPKKKRKVLEEPGQPLDLSCKRPRDYKDDDDK; FLAG-tagged Pep1 fusion with wild-type E1A sequence", "values": [
      {"measurement": "LPS-induced expression of the CtBP-controlled inflammatory genes", "setting": "[4]", "value": "inhibited LPS-induced expression"},
      {"measurement": "LPS-induced expression of the CtBP-controlled inflammatory genes", "setting": "[4]; listed as Pep1-E1A", "value": "strongly suppressed"},
      {"measurement": "expression of CtBP target gene in LPS-activated isolated mouse hippocampus", "setting": "[5]", "value": "inhibition of expression of CtBP target gene"},
      {"measurement": "imiquimod-induced epidermal proliferation (H&E, epidermis thickness)", "setting": "[2]", "value": "reducing imiquimod-induced epidermal proliferation"},
      {"measurement": "LPS-induced expression of the CtBP-controlled inflammatory genes", "setting": "[6]", "value": "inhibited LPS-induced expression"},
      {"measurement": "LPS-induced expression of the CtBP-controlled inflammatory genes", "setting": "[6]; listed as Pep1-E1A", "value": "strongly suppressed"},
      {"measurement": "basal mRNA levels of CDH1 and BAX (genes repressed by CtBPs)", "setting": "[6]; primary microglia, FIG. 6A right panel", "value": "increased the basal mRNA levels"}
    ]}
  ]
}
